The results in this text go back to PubChem BioAssay (NCI).

Common to all, as to assay: DTP human tumour cell line panel, 48 h
Experiment [1] relates to HOP-62 NSCLC.
Experiment [2] relates to DU-145 prostate.
For experiment [3], the system named is SK-MEL-2 melanoma.
Experiment [4] deals with 786-0 renal.
The test system of experiment [5] is SF-295 CNS.
Experiment [6] has as its system OVCAR-8 ovarian.
Experiment [7] concerns BT-549 breast.
Experiment [8] relates to SK-MEL-5 melanoma.
Experiment [9] concerns NCI-H522 lung.
For experiment [10], the system named is UACC-62 melanoma.

Each structure is given as a SMILES string. Where “and” joins values, the source holds several entries; their conditions need not be identical. Identical values can stand only once.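 Results reflect a 48-hour exposure of cells in 96-well plates to compound at five concentrations. GI50 is the concentration that inhibits growth by half. TGI: concentration producing complete growth inhibition.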 Bounds are passed on as bounds.

By TGI is commonly meant the concentration giving total growth inhibition. Lower therefore signals more potent growth arrest. As to `Cc1ccc(C)c(NC(=O)C(=O)C2C(=O)C3=C(CC2(C)C)Nc2ccccc2S3)c1` (stereo unspecified), the TGI in experiment [1], in experiment [2], in experiment [3], in [4], in [5] and in experiment [6] was over 100 µM each time. Moreover, the concentration for total growth inhibition (TGI) in experiment [7], in experiment [8], in experiment [9] and in experiment [10] was over 100 µM in each case.
A word on the GI50: it is the concentration at which growth is held to half of that of the control. As to `CN(C)/[N+]([O-])=N/Oc1cc(Nc2cccc(C(=O)O)c2)c([N+](=O)[O-])cc1[N+](=O)[O-]`, the GI50 in [1] was 32200 nM; in [2], over 100000 nM; in experiment [3], 36000 nM; in experiment [4], over 100000 nM; in [5] it was over 100000 nM; in experiment [6], over 100000 nM. Also, the GI50 in experiment [7] is 72200 nM; in experiment [8], 81400 nM; in experiment [9], 69300 nM; in experiment [10], 50100 nM. For the same compound, the TGI in experiment [1], in experiment [2], in [3], in experiment [4], in experiment [5] and in experiment [6] was over 100 µM in each case. In addition, the TGI in experiment [7], in [8], in [9] and in [10] was over 100 µM each time.
For `COc1cc2oc(=O)cc(C)c2cc1[N+](=O)[O-]`, the concentration for total growth inhibition (TGI) was over 100 µM in [1]; over 100 µM in experiment [2]; 58 µM in experiment [3]; 49.5 µM in [4]; over 100 µM in experiment [5]; 40.7 µM in [6]. The concentration for total growth inhibition (TGI) is 35.9 µM in experiment [7], over 65.1 µM in experiment [8], 26.3 µM in experiment [9] and 34.6 µM in [10].
Turning to `S=CN1CCCCC1`, the TGI in experiment [1], in [2], in experiment [3], in experiment [4], in experiment [5] and in experiment [6] was over 100 µM throughout. The TGI in experiment [7], in experiment [8], in experiment [9] and in [10] was over 100 µM throughout.
As for `CCn1c(=O)c(-c2ccn[nH]2)cc2c(C)nc(N)nc21`, the GI50 in [1] was 575 nM; in [2], 2340 nM; in experiment [3], 2250 nM; in [4], 511 nM; in experiment [5], 559 nM; in experiment [6] it was 2510 nM. Moreover, the GI50 was 225 nM in [7], 1380 nM in experiment [8], 1500 nM in [9] and 687 nM in [10]. Further, the TGI in experiment [1] was 5.91 µM; in experiment [2], over 100 µM; in [3] it was 9.58 µM; in experiment [4], 5.59 µM; in experiment [5], 3.68 µM; in experiment [6], 61.7 µM. Further, the TGI in [7] is 4.29 µM; in experiment [8], 6.3 µM; in [9], over 100 µM; in experiment [10], 3.54 µM.
Regarding `CCC/C(=N\NC(=S)N1CCN(c2ccccn2)CC1)c1ccccn1`, the 50% growth inhibitory concentration (GI50) is 60.3 nM in [1], 190 nM in [3] and 28.4 nM in experiment [4]. Also, the TGI in experiment [1] was 2.92 µM and 1.59 µM; in [2], 2.37 µM; in [3], 0.312 µM and 1.65 µM; in experiment [4], 1.82 µM and 1.94 µM; in experiment [5], 6.14 µM and 1.26 µM; in [6] it was 0.476 µM and 1.5 µM. In addition, the concentration for total growth inhibition (TGI) was 1.92 µM in [7]; 2.41 µM and 1.57 µM in [8]; 0.307 µM in [9]; 0.242 µM and 1.43 µM in [10].
As to `CC(O)C1OC(O)C2OC(C)(C)OC12` (stereo unspecified), the TGI in [1], in experiment [2], in [3], in experiment [4], in [5] and in experiment [6] was over 100 µM in each case. The TGI in [7], in [8], in experiment [9] and in experiment [10] was over 100 µM throughout.
Consider `CC(C)C[C@@H](NC(=O)[C@@H](Cc1ccccc1)NC(=O)c1cnccn1)B1O[C@H]2[C@H](O)[C@@H](C(=O)NCCCC[C@@H]3NC(=O)[C@@H](Cc4ccccc4)NC(=O)[C@H](CC(=O)O)NC(=O)CNC(=O)[C@H](CCCN=C(N)N)NC3=O)O[C@@H](CN)[C@H]2O1`, for which the GI50 in [1] was 12.5 nM and 18.9 nM; in experiment [2], 6.62 nM and 5 nM; in experiment [3], 7.02 nM and 5 nM; in [4], 4.65 nM and 5 nM; in [5], 4.86 nM and 5 nM; in experiment [6] it was 36.5 nM and 13.9 nM. Further, the GI50 was 3 nM and 5 nM in experiment [7]; 4.57 nM and 5 nM in experiment [8]; 3.3 nM and < 5 nM in experiment [9]; 4.39 nM and 5 nM in [10]. For the same compound, the TGI was 5.36 µM in experiment [2]; 0.0604 µM and 0.0123 µM in experiment [3]; 0.02 µM and 0.0147 µM in [5]; 0.622 µM and 0.0987 µM in [6]; 0.0112 µM and 0.0113 µM in experiment [7]; 0.0188 µM and 0.00855 µM in experiment [8]. For the same compound, the TGI in [9] is 0.0115 µM and < 0.005 µM; in experiment [10], 0.0408 µM and 0.014 µM.
For `CN(C)CCCCN1CCc2c(n(C)c3ccccc23)C1=O`, the TGI in experiment [1] was > 80.8 µM and 63.7 µM; in experiment [2], over 100 µM; in experiment [3], 50.2 µM and 35.9 µM; in [4] it was > 79.7 µM and 49.4 µM; in experiment [5], 71.9 µM and 49.6 µM; in experiment [6], over 100 µM. In addition, the concentration for total growth inhibition (TGI) in [7] is > 61.5 µM and 95.3 µM; in experiment [8] it was 42.8 µM and 31.9 µM; in experiment [9], over 82 µM; in experiment [10] it was 54.3 µM and 31.8 µM.
Regarding `Nc1c(C(=O)Nc2ccccc2)sc2nc3c(cc12)CCCCCC3`, the GI50 in [1] is 648 nM; in experiment [2], 445 nM; in experiment [3], 857 nM; in [4], 551 nM; in experiment [5] it was 291 nM; in [6] it was 478 nM. Also, the GI50 in [7] was 286 nM; in experiment [8] it was 393 nM; in [9], 271 nM; in [10] it was 428 nM. Also, the TGI was found to be 6.97 µM in experiment [1]; 12.3 µM in experiment [2]; 8.89 µM in experiment [3]; 3.93 µM in [4]; 1.69 µM in experiment [5]; 16.7 µM in [6]. In addition, the TGI in experiment [7] was found to be 4.05 µM; in experiment [8], 9.07 µM; in [9], 1.29 µM; in [10] it was 12.9 µM.
`COc1ccc(C(=O)Cn2c(C(=O)c3ccc(OC)cc3)nc3ccccc32)cc1`: the GI50 was 5460 nM in [1]; 4310 nM in experiment [2]; 12600 nM in [3]; 4540 nM in experiment [4]; 2080 nM in experiment [5]; 5850 nM in experiment [6]. The GI50 is 3520 nM in experiment [7], 2360 nM in [8], 2190 nM in [9] and 3470 nM in [10]. The TGI in [1], in [2], in [3], in [4], in experiment [5] and in experiment [6] was over 100 µM in each case. Besides, the total growth inhibition concentration (TGI) is over 100 µM in [7], over 27.1 µM in [8], over 100 µM in experiment [9] and over 100 µM in experiment [10].
Regarding `O=C1c2ccccc2-c2c1c1ccccc1c(=O)n2CCCNCCCn1c2c(c3ccccc3c1=O)C(=O)c1ccccc1-2`, the GI50 was 2680 nM in experiment [1]; 1490 nM in [2]; 22700 nM in [3]; 8530 nM in experiment [4]; 3520 nM in [5]; 2460 nM in [6]. Besides, the GI50 in experiment [7] was 8420 nM; in experiment [8] it was 7210 nM; in experiment [9], 13700 nM; in [10] it was 7520 nM. In addition, the concentration for total growth inhibition (TGI) in experiment [1] was 9.19 µM; in experiment [2], 5.85 µM; in experiment [3], over 50 µM; in [4] it was 29.8 µM; in [5], over 21.8 µM; in experiment [6], over 26 µM. Further, the TGI was 19.7 µM in experiment [7], 16.9 µM in [8], over 50 µM in [9] and 16.4 µM in [10].
On to `Oc1ccc2ccccc2c1C=NCCCN=Cc1c(O)ccc2ccccc12`, for which the GI50 is 22600 nM in experiment [1]; 35300 nM in [2]; 12600 nM in [3]; 17400 nM in experiment [4]; 9960 nM in experiment [5]; 32400 nM in [6]. The GI50 was 18500 nM in [7], 4610 nM in experiment [8], 4910 nM in experiment [9] and 4270 nM in [10]. Further, the total growth inhibition concentration (TGI) was 47.4 µM in experiment [1]; over 100 µM in experiment [2]; 37.2 µM in experiment [3]; 40.7 µM in experiment [4]; 42.1 µM in experiment [5]; over 100 µM in experiment [6]. For the same compound, the TGI in experiment [7] stood at 47.8 µM; in experiment [8], 16 µM; in experiment [9] it was 41.5 µM; in experiment [10], 16.8 µM.
With `Cc1cc2c(c3c1c1ccccc1n3C)C(=O)C=CC2=O`, the TGI in [1] is over 100 µM; in experiment [2], over 100 µM; in experiment [3], 51.9 µM; in experiment [4], 17.3 µM; in [5] it was over 88.4 µM; in experiment [6] it was 56.4 µM. The TGI in experiment [7] was 31.4 µM; in experiment [8], over 90.1 µM; in [9], 34.7 µM; in experiment [10] it was 51.1 µM.
